According to ChEMBL document CHEMBL1201862, “PubChem BioAssay data set” (2004):
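Tested at 5 concentrations; 48 h exposure; 96-well plates; endpoints linearly interpolated, else capped at highest concentration. GI50: concentration for 50% inhibition of growth.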 Calls of active or inactive are those of the source. Cut-off read from the data, not from the text of the source: active = GI50 up to about 1.1 µM and inactive = higher.

Legend:
Assay in all cases: inhibition of tumour cell growth, NCI panel, 48 h
NCI-H460 = test system: NCI-H460
OVCAR-8 = test system: OVCAR-8
NCI-H226 = test system: NCI-H226
HOP-62 = test system: HOP-62
SF-539 = test system: SF-539
NCI/ADR-RES = test system: NCI/ADR-RES
UACC-257 = test system: UACC-257
RXF 393 = test system: RXF 393
HT-29 = test system: HT-29
HL-60 = test system: HL-60
Malme-3M = test system: Malme-3M
SN12C = test system: SN12C
MCF7 = test system: MCF7
PC-3 = test system: PC-3
HCT-116 = test system: HCT-116
HOP-92 = test system: HOP-92
SF-268 = test system: SF-268
HCC 2998 = test system: HCC 2998
COLO 205 = test system: COLO 205
KM12 = test system: KM12
ACHN = test system: ACHN
T47D = test system: T47D
DU-145 = test system: DU-145
TK-10 = test system: TK-10
SW-620 = test system: SW-620
MDA-MB-435 = test system: MDA-MB-435
NCI-H23 = test system: NCI-H23
EKVX = test system: EKVX
RPMI-8226 = test system: RPMI-8226
OVCAR-3 = test system: OVCAR-3
K562 = test system: K562
CAKI-1 = test system: CAKI-1
SNB-19 = test system: SNB-19
SK-MEL-28 = test system: SK-MEL-28
786-0 = test system: 786-0
SK-MEL-5 = test system: SK-MEL-5
UO-31 = test system: UO-31
A498 = test system: A498
CCRF-CEM = test system: CCRF-CEM
HCT-15 = test system: HCT-15
SK-OV-3 = test system: SK-OV-3
SR = test system: SR
A549 = test system: A549
M14 = test system: M14
MDA-N = test system: MDA-N
SF-295 = test system: SF-295
Hs-578T = test system: Hs-578T
SNB-75 = test system: SNB-75
MDA-MB-231 = test system: MDA-MB-231
LOX IMVI = test system: LOX IMVI
MOLT-4 = test system: MOLT-4
OVCAR-5 = test system: OVCAR-5
UACC-62 = test system: UACC-62

Measured: GI50

Nc1nnc2n1C(=O)C(C1(C3=Nc4nnc(N)n4C3=O)Cc3ccccc3C1=O)=N2
> 100 µM: HCT-15
inactive: NCI-H460 > 100 µM | OVCAR-8 > 100 µM | NCI-H226 > 100 µM | HOP-62 > 100 µM | SF-539 > 100 µM | NCI/ADR-RES > 100 µM | UACC-257 > 100 µM | RXF 393 > 100 µM | HT-29 > 100 µM | HL-60 > 100 µM | Malme-3M > 100 µM | SN12C > 100 µM | MCF7 40.7 µM | PC-3 > 100 µM | HCT-116 > 100 µM | HOP-92 > 100 µM | SF-268 > 100 µM | HCC 2998 > 100 µM | COLO 205 > 100 µM | KM12 > 100 µM | ACHN > 100 µM | T47D 64.9 µM | DU-145 > 100 µM | TK-10 > 100 µM | SW-620 > 100 µM | MDA-MB-435 > 100 µM | NCI-H23 > 100 µM | EKVX > 100 µM | RPMI-8226 > 100 µM | OVCAR-3 > 100 µM | K562 94 µM | CAKI-1 > 100 µM | SNB-19 > 100 µM | SK-MEL-28 > 100 µM | 786-0 > 100 µM | SK-MEL-5 > 100 µM | UO-31 > 100 µM | CCRF-CEM 48 µM | SK-OV-3 > 100 µM | SR 76.6 µM | A549 43.5 µM | M14 > 100 µM | MDA-N > 100 µM | SF-295 > 100 µM | Hs-578T > 100 µM | SNB-75 > 100 µM | MDA-MB-231 31.8 µM | LOX IMVI 87.5 µM | MOLT-4 > 100 µM | OVCAR-5 > 100 µM | UACC-62 > 100 µM
active: A498 0.0205 µM
